In US8309558B2, “Compounds for the treatment of hepatitis C” (Bristol-Myers Squibb Company, priority 2008, dated 2012) one finds EC50 data, which are given here for 51 molecules.

One experiment relates to HCV replicon cells. In words: HCV replicon FRET / luciferase assay (96-well plates). In kind it is cell-based. To be noted: Hepatitis C virus, 24 h, Table 1d (class symbols); HCV replicon; read-out: EC50. The text has this: FRET Assay Preparation. To perform the HCV FRET screening assay, 96-well cell culture plates were used. The FRET peptide (Anaspec, Inc.) (Taliani et al., Anal. Biochem. 1996, 240, 60-67) contains a fluorescence donor, EDANS, near one end of the peptide and an acceptor, DABCYL, near the other end. The fluorescence of the peptide is quenched by […] resonance energy transfer (RET) between the donor and the acceptor, but as the NS3 protease cleaves the peptide the products are released from RET quenching and the fluorescence of the donor becomes apparent. The assay reagent was made as follows: 5× cell Luciferase cell culture lysis reagent from Promega (#E153A) diluted to 1× with dH2O, NaCl added to 150 mM final, the FRET peptide diluted to 20 μM final from a 2 mM stock.
To prepare plates, HCV replicon cells, with or without a Renilla luciferase reporter gene, were trypsinized and placed into each well of a 96-well plate with titrated test compounds added in columns 3 through 12; columns 1 and 2 contained a control compound (HCV protease inhibitor), and the bottom row contained cells without compound. The plates were then placed in a CO2 incubator at 37° C.
Assays. Subsequent to addition of the test compounds described above (FRET Assay Preparation), at various times the plate was removed and Alamar blue solution (Trek Diagnostics, #00-100) was added per well as a measure of cellular toxicity. After reading in a Cytoflour 4000 instrument (PE Biosystems), plates were rinsed with PBS and then used for FRET assay by the addition of 30 ul of the FRET peptide assay reagent described above (FRET Assay Preparation) per well. The plate was then placed into the Cytoflour 4000 instrument which had been set to 340 excite/490 emission, automatic mode for 20 cycles and the plate read in a kinetic mode. Typically, the signal to noise using an endpoint analysis after the reads was at least three-fold. Alternatively, after Alamar blue reading, plates were rinsed with PBS, 50 ul of DMEM (high glucose) without phenol red was added and plates were then used for luciferase assay using the Promega Dual-Glo Luciferase Assay System.
Compound analysis was determined by quantification of the relative HCV replicon inhibition and the relative cytotoxicity values. To calculate cytoxicity values, the average Alamar Blue fluorescence signals from the control wells were set as 100% non-toxic. The individual signals in each of the compound test wells were then divided by the average control signal and multiplied by 100% to determine […]. To calculate the HCV replicon inhibition values, an average background value was obtained from the two wells containing the highest amount of HCV protease inhibitor at the end of the assay period. These numbers were similar to those obtained from naïve Huh-7 cells.
The background numbers were then subtracted from the average signal obtained from the control wells and this number was used as 100% activity. The individual signals in each of the compound test wells were then divided by the averaged control values after background subtraction and multiplied by 100% to determine percent activity. EC50 values for a protease inhibitor titration were calculated as the concentration which caused a 50% reduction in FRET or luciferase activity. The two numbers generated for the compound plate, percent cytoxicity and percent activity were used to determine compounds of interest for further analysis.
By EC50 is commonly meant the concentration at which the effect is half-maximal. Take `CNC(=O)c1c(-c2ccc(F)cc2)oc2ccc(-c3cc(C(=O)NC4(c5ccccn5)CC4)c(OCC4CCOC4)cc3C)cc12` (stereo not drawn): the EC50 lay within 1 to 250 nM.
Still for that read-out and setting: the same measure for `CNC(=O)c1c(-c2ccc(F)cc2)oc2ccc(-c3cc(C(=O)NC4(c5ccccn5)CC4)c(OCCn4ccnc4)cc3C)cc12`: 1 to 250 nM; for `CNC(=O)c1c(-c2ccc(F)cc2)oc2ccc(-c3cc(C(=O)NC4(c5ccccn5)CC4)c(OCCN4CCN(C)CC4)cc3C)cc12`: 1 to 250 nM.
Still for that read-out and setting: the same measure for `CNC(=O)c1c(-c2ccc(F)cc2)oc2ccc(-c3cc(C(=O)NC4(c5ccccn5)CC4)c(OCc4ccncc4)cc3C)cc12`: 1 to 250 nM.
Same read-out and setting: the same measure for `CNC(=O)c1c(-c2ccc(F)cc2)oc2ccc(-c3cc(C(=O)NC4(c5ncoc5C)CC4)ccc3C)cc12`: 1 to 250 nM.
In the case of `CNC(=O)c1c(-c2ccc(F)cc2)oc2ccc(-c3cc(C(=O)NC4(C(=O)Nc5nc(C)no5)CC4)c(OC)cc3C)cc12`, the EC50 lay in the range of 1 to 250 nM.
Still for that read-out and setting: the same measure for `CNC(=O)c1c(-c2ccc(F)cc2)oc2ccc(-c3cc(C(=O)NC4(c5ccccn5)CC4)c(OCC4CCCCO4)cc3C)cc12` (stereo not drawn): 1 to 250 nM; for `CNC(=O)c1c(-c2ccc(F)cc2)oc2ccc(-c3cc(C(=O)NC(C)(C)C)ccc3OC)c(F)c12`: 1 to 250 nM.
Still for that read-out and setting: the same measure for `CNC(=O)c1c(-c2ccc(F)cc2)oc2ccc(-c3cc(C(=O)NC4(c5ncoc5C)CC4)c(OC)cc3C)cc12` [drawing 637]: 1 to 250 nM; for `CNC(=O)c1c(-c2ccc(F)cc2)oc2ccc(-c3cc(C(=O)NC4(c5ccccn5)CC4)c(OCC(=O)OC)cc3C)cc12` [drawing 642]: 250 to 1000 nM; for `CNC(=O)c1c(-c2ccc(F)cc2)oc2ccc(-c3cc(C(=O)NC4(c5ccncn5)CC4)ccc3C)cc12` [drawing 684]: 1 to 250 nM.
The same measure, in the same setting: with `CNC(=O)c1c(-c2ccc(F)cc2)oc2ccc(-c3cc(C(=O)NC4(c5ncc(F)cn5)CC4)c(OC)cc3C)c(F)c12` [drawing 689] the figure was 1 to 250 nM; with `CNC(=O)c1c(-c2ccc(F)cc2)oc2ccc(-c3cc(C(=O)NC4(c5ccnnc5)CC4)c(OC)cc3C)c(F)c12` [drawing 701], 1 to 250 nM.

Staying with this experiment, now noted: Hepatitis C virus, 24 h, second table titled Table 1d (numbers); HCV replicon; read-out: EC50.
`CNC(=O)c1c(-c2ccc(F)cc2)oc2ccc(-c3cc(C(=O)NC4(c5ncoc5C)CC4)c(OC)cc3C)cc12` [drawing 709]: the EC50 is 2 nM.
On the same count and under the same terms, with `CNC(=O)c1c(-c2ccc(F)cc2)oc2ccc(-c3cc(C(=O)NC4(c5ccccn5)CC4)c(OCC(=O)OC)cc3C)cc12` [drawing 710] the figure was 210 nM; with `CNC(=O)c1c(-c2ccc(F)cc2)oc2ccc(-c3cc(C(=O)NC4(c5ccncn5)CC4)ccc3C)cc12` [drawing 713], 2 nM; with `CNC(=O)c1c(-c2ccc(F)cc2)oc2ccc(-c3cc(C(=O)NC4(c5ncc(F)cn5)CC4)c(OC)cc3C)c(F)c12` [drawing 714], 10 nM.
The same measure, in the same setting: with `CNC(=O)c1c(-c2ccc(F)cc2)oc2ccc(-c3cc(C(=O)NC4(c5ccnnc5)CC4)c(OC)cc3C)c(F)c12` [drawing 715] the figure was 56 nM.

The same experiment, now with this note: Hepatitis C virus, Table 1a; HCV replicon; read-out: EC50.
`CNC(=O)c1c(-c2ccc(F)cc2)oc2ccc(OCC(=O)NCc3ccco3)cc12`: the EC50 was in the range of 1000 to 10000 nM.
Turning to `CNC(=O)c1c(-c2ccc(F)cc2)oc2ccc(OCC(=O)NCc3nc4ccccc4s3)cc12`, the EC50 was 1000 to 10000 nM.

The same experiment, now with this note: Hepatitis C virus, Table 1b; HCV replicon; read-out: EC50.
Turning to `CCOc1ccc(C(=O)NCC(C)C)cc1-c1ccc2oc(-c3ccc(F)cc3)c(C(=O)NC)c2c1`, the EC50 is under 250 nM.
Same read-out and setting: the same measure for `CNC(=O)c1c(-c2ccc(F)cc2)oc2ccc(-c3ccc(-c4cccnc4)c(C(=O)NCC(C)C)c3)cc12`: under 250 nM; for `CCOc1cccc(-c2ccc(-c3ccc4oc(-c5ccc(F)cc5)c(C(=O)NC)c4c3)cc2C(=O)NCC(C)C)c1`: under 250 nM.
The same measure, in the same setting: the same measure for `CNC(=O)c1c(-c2ccc(F)cc2)oc2ccc(-c3ccc(CCC(C)C)c(C(=O)NCC(C)C)c3)cc12`: over 10000 nM; for `CNC(=O)c1c(-c2ccc(F)cc2)oc2ccc(-c3ccc(-c4cccc(C(=O)O)c4)c(C(=O)NCC(C)C)c3)cc12`: 1000 to 10000 nM.
Still for that read-out and setting: the same measure for `CCCn1cc(-c2ccc(-c3ccc4oc(-c5ccc(F)cc5)c(C(=O)NC)c4c3)cc2C(=O)NCC(C)C)cn1`: under 250 nM; for `CNC(=O)c1c(-c2ccc(F)cc2)oc2ccc(-c3ccc(-c4ccccc4CO)c(C(=O)NCC(C)C)c3)cc12`: under 250 nM; for `CNC(=O)c1c(-c2ccc(F)cc2)oc2ccc(-c3ccc(-c4ccoc4)c(C(=O)NCC(C)C)c3)cc12`: under 250 nM.
Turning to `CNC(=O)c1c(-c2ccc(F)cc2)oc2ccc(-c3cc(C(=O)NCC(C)C)ccc3OCCN(Cc3ccccc3)Cc3ccccc3)cc12`, the EC50 lay in the range of 1000 to 10000 nM.
On to `CNC(=O)c1c(-c2ccc(F)cc2)oc2cc(N(CCO)S(C)(=O)=O)c(-c3cccc(C(=O)NC(C)(C)c4ccncc4)c3)cc12`, for which the EC50 is under 250 nM.
Still for that read-out and setting: with `CNC(=O)c1c(-c2ccc(F)cc2)oc2cc(N(CCO)S(C)(=O)=O)c(-c3cccc(C(=O)NC(C)(C)c4ccnc(C)c4)c3)cc12` the figure was under 250 nM; with `CNC(=O)c1c(-c2ccc(F)cc2)oc2ccc(-c3cccc(C(=O)NC(C)(C)c4ccccn4)c3)cc12`, under 250 nM.
Regarding `CNC(=O)c1c(-c2ccc(F)cc2)oc2ccc(-c3cccc(C(=O)NC(C)(C)c4cccc(C)n4)c3)cc12`, the EC50 was 250 to 1000 nM.
The same measure, in the same setting: with `CNC(=O)c1c(-c2ccc(F)cc2)oc2cc(NS(C)(=O)=O)c(/C=C/C(=O)OC(C)(C)C)cc12` the figure was 1000 to 10000 nM; with `CNC(=O)c1c(-c2ccc(F)cc2)oc2ccc(-c3cc(C(=O)NCC(C)C)ccc3OCCCN3C(=O)c4ccccc4C3=O)cc12`, over 10000 nM.
On the same count and under the same terms, with `CNC(=O)c1c(-c2ccc(F)cc2)oc2ccc(-c3cc(C(=O)NC4(c5ccccn5)CC4)ccc3C3CC3)cc12` the figure was over 10000 nM; with `CNC(=O)c1c(-c2ccc(F)cc2)oc2ccc(-c3cc(C(=O)O)ccc3OC(F)(F)F)cc12`, over 10000 nM; with `CNC(=O)c1c(-c2ccc(F)cc2)oc2ccc(-c3cc(C(=O)NC4(c5noc(-c6ccccc6)n5)CC4)ccc3C)cc12`, under 250 nM.
In the case of `CNC(=O)c1c(-c2ccc(F)cc2)oc2ccc(-c3cc(C(=O)NC4(c5noc(C)n5)CC4)c(OC)cc3Cl)cc12`, the EC50 is under 250 nM.
With `CNC(=O)c1c(-c2ccc(F)cc2)oc2ccc(-c3cc(C(=O)NC4(c5noc(C)n5)CC4)c(OC)cc3C)cc12`, the EC50 is under 250 nM.
Turning to `CNC(=O)c1c(-c2ccc(F)cc2)oc2ccc(-c3cc(C(=O)NC4(c5nnc(-c6ccccc6OC)[nH]5)CC4)ccc3C)cc12`, the EC50 is under 250 nM.
Still for that read-out and setting: the same measure for `CCCc1nnc(C2(NC(=O)c3ccc(C)c(-c4ccc5oc(-c6ccc(F)cc6)c(C(=O)NC)c5c4)c3)CC2)[nH]1`: under 250 nM; for `CNC(=O)c1c(-c2ccc(F)cc2)oc2ccc(-c3ccc(-c4ccccc4Cl)c(C(=O)NC4(c5ccccn5)CC4)c3)cc12`: under 250 nM.
Still for that read-out and setting: the same measure for `CNC(=O)c1c(-c2ccc(F)cc2)oc2ccc(-c3cc(C(=O)NC4(c5cncnc5)CC4)ccc3C)cc12`: under 250 nM; for `CNC(=O)c1c(-c2ccc(F)cc2)oc2ccc(-c3cc(C(=O)OC)c(OC)cc3OCC(N)=O)cc12`: 1000 to 10000 nM.
Same read-out and setting: the same measure for `CCNC(=O)c1cc(-c2ccc3oc(-c4ccc(F)cc4)c(C(=O)NC)c3c2F)c(C)cc1OC`: under 250 nM; for `CNC(=O)c1c(-c2ccc(F)cc2)oc2ccc(-c3cc(C(=O)NC4(c5cc(C)on5)CC4)ccc3C)cc12`: under 250 nM; for `CNC(=O)c1c(-c2ccc(F)cc2)oc2ccc(-c3cc(C(=O)NC4(c5cn(C)cn5)CC4)c(OC)cc3C)cc12`: under 250 nM.
In the case of `CNC(=O)c1c(-c2ccc(F)cc2)oc2ccc(-c3cc(C(=O)NC4(c5ncc(C)s5)CC4)c(OC)cc3C)cc12`, the EC50 is under 250 nM.
The same measure, in the same setting: with `CNC(=O)c1c(-c2ccc(F)cc2)oc2ccc(-c3cc(C(=O)NC4(c5nc(C)no5)CC4)ccc3C)cc12` [drawing 478] the figure was under 250 nM.

The same experiment, now with this note: Table 1b; HCV replicon; read-out: EC50.
Consider `CNC(=O)c1c(-c2ccc(F)cc2)oc2ccc(-c3cc(C(=O)NCC(C)C)ccc3OCCC3CNCCO3)cc12` (stereo not drawn) [drawing 567], for which the EC50 is under 250 nM.
